Assay [1] addresses HSV-1 SC16 dThd kinase in infected HeLa BU cells (Human herpesvirus 1, UniProt P06479). Nature of the assay: Intracellular dThd kinase activity ([14C]dThd phosphorylation). It is filed as cell-based, HSV-1 (strain SC16). Particulars: intracellular [14C]dThd phosphorylation. The method, then: Intracellular dThd kinase activity. HeLa S3 or HeLa BU cells (1.5×10^6 /ml) were mock infected or infected with HSV-1 or HSV-2at 3 PFU/cell and incubated at 37° C. for a 1 h adsorption period. The medium was then removed, and the cells were washed with growth medium and resuspended at a cell density of 5×10^5 cells/ml in RPMI 1640 medium supplemented with kanamycin (100 μg/ml) and 5% dialyzed fetal bovine serum. At 9 h post-HSV infection, [14C]dThd (0.16 μCi/ml; 1 μM dThd) and different amounts of 5'-Et-dThd were added to the medium depending on experimental conditions. At the end of the labeling period (1 h), the cells were pelleted by centrifugation, washed with phosphate-buffered-saline (PBS) and resuspended in a small volume of PBS. Aliquots were then pipetted directly onto DE81 discs which were immediately washed in 100% EtOH. The DE81 discs were washed two additional times in 100% EtOH, and then radioactivity associated with the discs was measured by scintillation counting in 5 ml of aqueous counting fluid. In this manner, total intracellular dThd kinase activity was determined from the sum of radioactive acid soluble dThd nucleotides plus the acid insoluble dTMP associated with DNA, both precipitated directly on the DE81 discs.

Assay [2] has as its target HSV-1 SC16 dThd kinase (Human herpesvirus 1, UniProt P06479). Nature of the assay: dThd kinase assay in vitro, enzyme extracts. The settings on record: enzyme extracts of infected HeLa BU cells, 100 μM dThd. It is filed as biochemical, HSV-1 (strain SC16). On the procedure:
Virus stocks. The viruses used were HSV-1 (strains KOS, SC16, B3 and Tr7) and HSV-2(strain 333). dThd kinase mutants of HSV (SC16), B3 and Tr7, were isolated in the presence of (E)-5-(2-bromovinyl)-2'-deoxyuridine (BVDU) at 10 μg/ml and ACV at 1 μg/ml, respectively (Darby, G., Field, H.J. & Salisbury, S. A. (1982) Nature (London) 289:81-83; Field, H.J & Neden J. (1982) Antiviral Res. 2:243254).
Enzyme purification, enzyme assays, IC50 and Ki determinations. The cellular cytosolic dThd kinase used to determine the Ki values was isolated from KB6B cells. The HSV-1 and HSV-2dThd kinases were extracted from dThd kinase-deficient HeLa BU cells infected with HSV-1 (strain KOS) and HSV-2(strain 333), respectively. All of the dThd kinases were purified using affinity column chromatography procedures described by Lee, L. S. and Cheng, Y.-C. (J. Biol. Chem. 251:2600-2604 (1976)). The dThd kinase assay used was the same as that described by Cheng, Y.-C. & Ostrander, M. (J. Biol. Chem. 251:2605-2610 (1976)). Incubations were conducted at 37° C. for 60 min and the Ki and 50% […] concentration (IC50) values were determined as described by Cheng, Y.-C. and Prusoff, W. H. (Biochem. Pharmacol. 22:3099-3108 (1976)).

Assay [3] has as its system virus DNA synthesis. Nature of the assay: Virus DNA synthesis, isopycnic centrifugation of 32PO4-labeled DNA. It is filed as cell-based. Particulars: 5'-Et-dThd by itself; 32PO4-labeled virus DNA separated from host DNA. The source says:
By itself, 5'-Et-dThd had no effect on virus yield (Table II) and on virus DNA synthesis as determined from isopycnic centrifugation studies where ^32 PO4 -labeled virus DNA was separated from host DNA. Nucleoside analogs have been developed based on the "selective alternate substrate" strategy, and depend on viral dThd kinase for their antiviral activity. The effect of 5'-Et-dThd on the antiviral efficacy of five such analogs, ACV, 9-(1, 3-dihydroxy-2-propoxymethyl) guanine (DHPG), fluoroido-arabinosyl-cytosine (FIAC), BVDU and 5'-amino-dThd (5'-NH2 -dThd) has been examined. The effect of 5'-Et-dThd on the activity of the five agents was determined by the virus yield assay using HSV-1 (strain KOS)-infected HeLa BU cells. At 100 μM, 5'-Et-dThd reversed the antiviral activity of ACV (15 μM), DHPG (2 μM), FIAC (1 μM), BVDU (1 μM) and 5'-NH2 -dThd (500 μM)35-, 100-, 98-, 15- and 250-fold, respectively (Table II). […] The results further indicate that the use of 5'-Et-dThd in the prophylaxis/prevention of virus reactivation would require a sequential order when used with virus dThd kinase-dependent antiviral agents.

Experimental findings from patent US5008252A, “Process for inhibiting herpes simplex virus-specified thymidine kinase” (The University of North Carolina at Chapel Hill, priority 1987, dated 1991) are described below.

One may read the IC50 as the concentration that inhibits the measured activity by half. Low readings indicate greater potency in that assay, high ones weaker potency in that assay.

HSV-1 SC16 dThd kinase in infected HeLa BU cells, sequence (P06479 whole entry, looked up): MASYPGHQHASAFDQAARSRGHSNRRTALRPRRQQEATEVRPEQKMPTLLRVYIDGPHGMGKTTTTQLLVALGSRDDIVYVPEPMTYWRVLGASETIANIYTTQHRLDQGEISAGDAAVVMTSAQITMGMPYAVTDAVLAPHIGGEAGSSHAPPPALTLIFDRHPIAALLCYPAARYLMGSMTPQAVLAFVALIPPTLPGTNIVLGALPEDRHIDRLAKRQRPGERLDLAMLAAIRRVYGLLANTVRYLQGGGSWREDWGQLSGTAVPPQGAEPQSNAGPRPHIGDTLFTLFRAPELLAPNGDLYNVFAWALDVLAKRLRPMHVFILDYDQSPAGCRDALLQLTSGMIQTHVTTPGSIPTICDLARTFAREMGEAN
HSV-1 SC16 dThd kinase, sequence (P06479 whole entry, looked up): as above

In the case of 5'-ethynylthymidine [5'-Et-dThd], the IC50 in assay [1] and in assay [2] was 5 µM throughout. Further, the “effect on virus DNA synthesis” value in assay [3] was “no effect”.
